Source: US10196417B2, “Baicalin magnesium compound and its preparation method and application” (CHENGDE MEDICAL UNIVERSITY, priority 2016, dated 2019)
In brackets after ≈: the same amount, converted by molar mass. Marks after values point to notes of the source that are not given here.

Legend:
[1] = Water solubility at 37° C. (equilibrium solubility method); assay type: physicochemical; conditions: for solubility: 37 °C, thermodynamic from solid
Method: The solubility of the baicalin and the solubility of the baicalin magnesium in water at 37° C. were measured by a conventional solubility measurement method.

[2] = tested on: xylene-induced ear swelling in mice; assay: Anti-inflammatory activity: xylene-induced ear swelling; assay type: in vivo; conditions: n = 8
Method: 144 healthy mice were randomly divided into 3 groups, a baicalin group, a baicalin magnesium group and a control group. Each group was divided into six subgroups each having 8 mice according to time points (1 h, 3 h, 5 h, 7 h, 11 h and 15 h). Mice in the baicalin group were orally administrated (ig administration) at a dose of 100 mg·kg-1; mice in the baicalin magnesium group were orally administrated (ig administration) at a dose equivalent to 100 mg·kg-1 of baicalin; and mice in the control group were administrated with the same volume of normal saline. At 40 minutes before each time point, 100 μl of xylene was dropped in left ears of the mice in each group; when at a time point, the animals were sacrificed. Auricles of both ears of the mice were obtained with a puncher, and the difference in weight (swelling degree) between the left ear and the right ear was used as an indication of the anti-inflammatory effect of the drug.

[3] = tested on: Human liver cancer HepG2 cells; assay: Anti-tumor activity: apoptosis of HepG2 cells by flow cytometry; assay type: cell-based; conditions: 48 hours
Method: Human liver cancer HepG2 cells were prepared and then cultured in an incubator containing 5% of CO2 at 37° C. using a DMEN culture medium containing 10% of fetal bovine serum, penicillin (100 μmol·L^−1) and streptomycin (1 mg·mL^−1). HepG2 cells in logarithmic phase were diluted with RPMI-1640 culture medium containing 10% of fetal bovine serum to a concentration of 1×10^4 per mL; then inoculated into a 96-well plate at 100 μL per well; and then cultured in an incubator having a relative humidity of 90% and 5% of CO2 at 37° C. The culture medium was discarded after the HepG2 cells were cultured for 24 hours. The culture medium containing baicalin and baicalin magnesium (equivalent to the concentration of baicalin (5 μg/mL, 10 μg/mL and 20 μg/mL)) were added in wells respectively with each concentration in four parallel wells. And at the same time, wells having culture medium without cells were used as a blank control group, and wells having cells without drug were used as a negative control group. The groups were continuously cultured for 48 hours to collect the cells. The cells were washed with PBS solution 2 times, and detected with a flow cytometer by FACS for parameter acquisition and data analysis.

[4] = tested on: yeast-induced febrile rats; assay: Antipyretic effect in yeast-induced febrile rats; assay type: in vivo, SD male rats; conditions: for ΔT comparing the baicalin magnesium with the baicalin: difference between groups; for Body temperature change ΔT: intragastric 80 mg/kg baicalin or equivalent
Method: SD male rats were randomly divided into 4 groups, a control group, a model group, a baicalin group and a baicalin magnesium group. Rats were raised in a normal day/night cycle and at room temperature (22±2° C.) and a relative humidity of (50±2)%. Three days before the test, rats were placed in the experimental environment to adapt to the experimental conditions. Rats having a basal body temperature of 37.5-39.0° C. were selected for test The rats were fasted for 12 hours before the test, and the body temperature of rats was measured once every 1 hour when tested. Average of three body temperature values (the temperature values would be removed if a difference between the highest value and the lowest value was greater than 0.5° C.) of rats was used as the basal body temperature.
The rats were intragastrically administrated with baicalin or baicalin magnesium, and then immediately subcutaneously injected with 20% of dried yeast saline suspension (not for the control group). The administration mode was as follows: rats in the control group were intragastrically administrated with 2 ml/kg of normal saline and subcutaneously injected with 10 ml/kg of normal saline; rats in the model group were ntragastrically administrated 2 ml/kg of normal saline and subcutaneously injected with 2 g/kg of yeast; rats in the baicalin group were intragastrically administrated with 80 mg/kg of baicalin and subcutaneously injected with 2 g/kg of yeast; and rats in the baicalin magnesium group were intragastrically administrated with baicalin magnesium (equivalent to 80 mg/kg of baicalin) and subcutaneously injected with 2 g/kg of yeast. The body temperature of the rats was measured once every 2 hours for 14 hours to observe the temperature change of rats (ΔT, ° C.) at different time after injection of the yeast.

[5] = tested on: acetic acid-induced pain in mice; assay: Analgesia: acetic acid-induced writhing; assay type: in vivo; conditions: 0.067 g/kg (baicalin equivalent) intragastric once per day 7 days; for Analgesia %: vs blank control; for Number of writhing: writhing within 15 minutes after 0.6% acetic acid i.p.
Method: 40 mice, 20-22 g in weight, were randomly divided into 4 groups each having 10 mice, a baicalin (0.067 g/kg) group, a baicalin magnesium (equivalent to 0.067 g/kg of baicalin) group, a blank control group (administrated with normal saline), and an aspirin positive control group (0.15 g/kg). The mice were intragastrically administrated once per day for successive 7 days. After 30 minutes of final administration, the mice were intraperitoneally injected with 0.6% acetic acid saline solution at a dose of 0.2 mL/10 g; the number of writhing responses in the mice within 15 minutes was counted. Analgesia % was calculated as follows: Analgesia %=[(average number of writhing responses of the blank control group−average number of writhing responses of the drug administration group)/average number of writhing responses of the blank control group]×100%. Single-factor variance analysis was performed on data by the SPSS19.0 statistical software, and P<0.05 was of statistical significance.

[6] = 1 h after oral 100 mg/kg baicalin or equivalent
[7] = 3 h after oral 100 mg/kg baicalin or equivalent
[8] = 5 h after oral 100 mg/kg baicalin or equivalent
[9] = 7 h after oral 100 mg/kg baicalin or equivalent
[10] = 11 h after oral 100 mg/kg baicalin or equivalent
[11] = 15 h after oral 100 mg/kg baicalin or equivalent
[12] = HepG2, 5 μg/mL (baicalin equivalent)
[13] = HepG2, 10 μg/mL (baicalin equivalent)
[14] = HepG2, 20 μg/mL (baicalin equivalent)

Compound: O=C(O)C1O[C@@H](Oc2cc3oc(-c4ccccc4)cc(=O)c3c(O)c2O)C(O)[C@@H](O)[C@@H]1O (stereo partly shown) [Baicalin Magnesium, baicalin magnesium]
- Water solubility relative to the solubility of the baicalin ([1]; 37° C.): 2225 times
- solubility [1]: 129 mg/mL (≈ 289 mM)
- Ear swelling degree (difference in weight left vs right ear) [2, 6]: 5.87 ± 2.05*^Δ mg
- Ear swelling degree (difference in weight left vs right ear) [2, 7]: 4.57 ± 3.56 mg
- Ear swelling degree (difference in weight left vs right ear) [2, 8]: 4.63 ± 2.78 mg
- Ear swelling degree (difference in weight left vs right ear) [2, 9]: 5.87 ± 3.43 mg
- Ear swelling degree (difference in weight left vs right ear) [2, 10]: 6.77 ± 3.75*^Δ mg
- Ear swelling degree (difference in weight left vs right ear) [2, 11]: 7.97 ± 2.85^Δ mg
- Apoptosis % [3, 12]: 11.67 ± 0.65 %
- Apoptosis % [3, 13]: 23.67 ± 5.21 %
- Apoptosis % [3, 14]: 33.12 ± 1.58*^Δ %
- ΔT comparing the baicalin magnesium with the baicalin ([4]; 6 h): 0.2 °C
- Body temperature change ΔT ([4]; 6 h after yeast 2 g/kg s.c.): 0.2 °C
- ΔT comparing the baicalin magnesium with the baicalin ([4]; 8 h): 0.5 °C
- Body temperature change ΔT ([4]; 8 h after yeast 2 g/kg s.c.): 0.3 °C
- Analgesia % [5]: 60.6*^Δ %
- Number of writhing [5]: 10.43 ± 3.56*^Δ

Compound: O=C(O)[C@H]1O[C@@H](Oc2cc3oc(-c4ccccc4)cc(=O)c3c(O)c2O)[C@H](O)[C@@H](O)[C@@H]1O [Baicalin]
- solubility [1]: 0.058 mg/mL (≈ 0.13 mM)
- Ear swelling degree (difference in weight left vs right ear) [2, 6]: 7.57 ± 3.05 mg
- Ear swelling degree (difference in weight left vs right ear) [2, 7]: 4.66 ± 2.76 mg
- Ear swelling degree (difference in weight left vs right ear) [2, 8]: 4.88 ± 1.99 mg
- Ear swelling degree (difference in weight left vs right ear) [2, 9]: 6.77 ± 2.54 mg
- Ear swelling degree (difference in weight left vs right ear) [2, 10]: 7.89 ± 2.98 mg
- Ear swelling degree (difference in weight left vs right ear) [2, 11]: 9.12 ± 1.98 mg
- Apoptosis % [3, 12]: 9.57 ± 0.56 %
- Apoptosis % [3, 13]: 21.45 ± 1.67 %
- Apoptosis % [3, 14]: 30.67 ± 3.45 %
- Body temperature change ΔT ([4]; 6 h after yeast 2 g/kg s.c.): 0.4 °C
- Body temperature change ΔT ([4]; 8 h after yeast 2 g/kg s.c.): 0.8 °C
- Analgesia % [5]: 33.7* %
- Number of writhing [5]: 17.54 ± 4.44
